Read-outs that look alike come from different tables or passages of the source.
Experiments:
[1] = target: T1, Human Indoleamine 2,3-dioxygenase (IDO) (Homo sapiens, UniProt P14902); test: Human IDO enzymatic assay (kynurenine level); format: biochemical
T1 construct: His tag (N); made in house; host or cells: E. coli
Procedure, shortened: (§1)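 N-terminally His-tagged enzymes expressed in E. coli were run in 50 mM sodium phosphate pH 6.5 with 10 mM ascorbate, catalase and Tween 20. IDO: 6 nM enzyme, 10 μM L-Trp, 5 μM methylene blue, 20 min RT. TDO: 1 nM enzyme, 350 μM L-Trp, 0.4 μM methylene blue, 70 min RT.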

[2] = target: T2, Human Tryptophan 2,3-dioxygenase (TDO) (Homo sapiens, UniProt P48775); test: Human TDO enzymatic assay (kynurenine level); format: biochemical
T2 construct: His tag (N); made in house; host or cells: E. coli
Procedure, shortened: as §1

[3] = target: T3, human IDO (IDO1-expressing HEK293 cells) (Homo sapiens, UniProt P14902); test: Cell based kynurenine assay, IDO1-expressing HEK293 cell clones; settings: IDO1-expressing HEK293 cells, 24 hours incubation; geometric mean; read-out: HEK293 IDO1 Kynurenine GMean IC50 (μM) (Cellular Assay)
T3 construct: expressed in transfected cells
Description: (§2) Determine Inhibitor Activity Against IDO or TDO in Cell Based Kynurenine Assay
(§3) IDO1-expressing or TDO-expressing HEK293 cell clones are generated upon stable transfection of plasmids expressing human IDO or human TDO under the control of CMV promoter. Cells are selected in DMEM media supplemented with 10% fetal bovine serum and 1 mg/ml G418 at 37° C. in a humidified incubator supplied with 5% CO2. The assays are performed as follows.
(§4) Cells were seeded in a 96 well plate in 50 μL of culture media at a density of 2.5×10^4 per well. Serial dilutions of compounds (in total volume of 50 μL culture media) are added into cells. 4 wells containing 0.2% DMSO treated cells serve as high controls and 4 wells containing media only with 0.2% DMSO serve as low controls. After 24 hours of incubation, the supernatant was transferred to a 384 well reaction plate and the kynurenine level determined. The percentage inhibition at individual concentrations relative to high and low controls is calculated. The data is analyzed by using nonlinear regression to generate IC50 values.

[4] = target: T4, human TDO (TDO-expressing HEK293 cells) (Homo sapiens, UniProt P48775); test: Cell based kynurenine assay, TDO-expressing HEK293 cell clones
T4 construct: expressed in transfected cells
Description: as §2, §3, §4

[5] = 6 nM IDO, 10 μM L-Trp, geometric mean, read-out: IDO1 GMean: IC50 (μM) (Biochemical Assay)
[6] = 1 nM TDO, 350 μM L-Trp, geometric mean, read-out: TDO GMean: IC50 (μM) (Biochemical Assay)
[7] = TDO-expressing HEK293 cells, 24 hours incubation, geometric mean, read-out: HEK293 TDO Kynurenine GMean IC50 (μM) (Cellular Assay)
[8] = biochemical assay, comparative examples, 4,6 versus 5,7 indazole, read-out: IDO1
[9] = biochemical assay, comparative examples, 4,6 versus 5,7 indazole, read-out: TDO
[10] = cellular assay, HEK293, 24 hours, comparative examples, read-out: hTDO

T3 sequence (P14902 whole entry): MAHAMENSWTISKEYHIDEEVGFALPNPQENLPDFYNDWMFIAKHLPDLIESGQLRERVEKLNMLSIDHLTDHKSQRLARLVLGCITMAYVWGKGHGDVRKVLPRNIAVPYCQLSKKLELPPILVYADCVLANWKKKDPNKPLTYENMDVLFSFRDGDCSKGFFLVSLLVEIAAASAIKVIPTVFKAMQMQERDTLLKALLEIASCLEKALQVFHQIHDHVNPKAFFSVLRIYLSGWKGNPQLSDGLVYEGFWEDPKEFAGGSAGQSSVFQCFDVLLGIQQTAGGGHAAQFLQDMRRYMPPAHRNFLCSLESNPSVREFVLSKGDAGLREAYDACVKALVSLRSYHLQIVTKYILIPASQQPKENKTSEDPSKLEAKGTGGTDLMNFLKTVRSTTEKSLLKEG
T1 sequence (P14902 whole entry): as above
T2 sequence (P48775 whole entry): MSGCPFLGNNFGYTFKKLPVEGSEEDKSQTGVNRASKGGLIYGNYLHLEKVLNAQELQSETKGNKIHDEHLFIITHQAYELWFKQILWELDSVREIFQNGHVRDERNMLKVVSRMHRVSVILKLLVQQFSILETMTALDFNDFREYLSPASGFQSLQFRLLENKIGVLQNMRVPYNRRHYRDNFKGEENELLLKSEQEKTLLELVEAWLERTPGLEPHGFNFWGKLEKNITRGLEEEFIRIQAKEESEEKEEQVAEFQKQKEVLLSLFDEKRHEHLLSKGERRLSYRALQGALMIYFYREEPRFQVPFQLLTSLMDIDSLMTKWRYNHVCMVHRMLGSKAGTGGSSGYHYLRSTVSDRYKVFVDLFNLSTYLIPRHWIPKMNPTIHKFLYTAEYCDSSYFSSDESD
T4 sequence (P48775 whole entry): as above

IC50 [1, 5] | IC50 [2, 6] | IC50 [3] | IC50 [4, 7] | IC50 [1, 8] | IC50 [2, 9] | IC50 [4, 10] | SMILES
0.0001 to 10 µM | 0.0001 to 10 µM | 0.0001 to 10 µM | 0.0001 to 10 µM |  |  |  | CC(C)(C)OC(=O)N1CCC(C(C)(C)C(O)c2cc(Cl)cc3cn[nH]c23)CC1 (racemic) [Compound P-0163, tert-butyl 4-(1-(5-chloro-1H-indazol-7-yl)-1-hydroxy-2-methylpropan-2-yl)piperidine-1-carboxylate]
0.0001 to 10 µM | 0.0001 to 10 µM | 0.0001 to 10 µM | 0.0001 to 10 µM |  |  |  | OC(c1c(F)c(Cl)cc2cn[nH]c12)C12CCC(CC1)CC2 (racemic) [Compound P-0294, bicyclo[2.2.2]octan-1-yl(5-chloro-6-fluoro-1H-indazol-7-yl)methanol]
0.0001 to 10 µM | 0.0001 to 10 µM | > 10 µM | > 10 µM |  |  |  | OC(c1cccnc1)c1cc(Cl)cc2cn[nH]c12 (centres unmarked) [Compound P-0001, (5-chloro-1H-indazol-7-yl)(pyridin-3-yl)methanol]
0.0001 to 10 µM | 0.0001 to 10 µM | 0.0001 to 10 µM | 0.0001 to 10 µM |  |  |  | OC(c1cc(Cl)cc2cn[nH]c12)C1CCCCC1 (centres unmarked) [Compound P-0002, (5-chloro-1H-indazol-7-yl)(cyclohexyl)methanol]
0.0001 to 10 µM | 0.0001 to 10 µM | 0.0001 to 10 µM | 0.0001 to 10 µM |  |  |  | OC(c1cc(Cl)cc2cn[nH]c12)C1(F)CCCCC1 (centres unmarked) [Compound P-0004, (5-chloro-1H-indazol-7-yl)(1-fluorocyclohexyl)methanol]
0.0001 to 10 µM | 0.0001 to 10 µM | 0.0001 to 10 µM | 0.0001 to 10 µM |  |  |  | OC(c1cc(Cl)cc2cn[nH]c12)C1CCCC1 (centres unmarked) [Compound P-0005, (5-chloro-1H-indazol-7-yl)(cyclopentyl)methanol]
0.0001 to 10 µM | 0.0001 to 10 µM | 0.0001 to 10 µM | 0.0001 to 10 µM |  |  |  | CC1(C(O)c2cc(Cl)cc3cn[nH]c23)CCCCC1 (centres unmarked) [Compound P-0006, (5-chloro-1H-indazol-7-yl)(1-methylcyclohexyl)methanol]
0.0001 to 10 µM | 0.0001 to 10 µM | 0.0001 to 10 µM | 0.0001 to 10 µM |  |  |  | OC(CC1CCCCC1)c1cc(Cl)cc2cn[nH]c12 (centres unmarked) [Compound P-0007, 1-(5-chloro-1H-indazol-7-yl)-2-cyclohexylethan-1-ol]
0.0001 to 10 µM | 0.0001 to 10 µM | 0.0001 to 10 µM | 0.0001 to 10 µM |  |  |  | CC(C)(C1CCCCC1)C(O)c1cc(Cl)cc2cn[nH]c12 (centres unmarked) [Compound P-0008, 1-(5-chloro-1H-indazol-7-yl)-2-cyclohexyl-2-methylpropan-1-ol]
0.0001 to 10 µM | 0.0001 to 10 µM | 0.0001 to 10 µM | > 10 µM |  |  |  | OC(CCC1CCCCC1)c1cc(Cl)cc2cn[nH]c12 (stereo not drawn) [Compound P-0009, 1-(5-chloro-1H-indazol-7-yl)-3-cyclohexylpropan-l-ol]
0.0001 to 10 µM | 0.0001 to 10 µM | 0.0001 to 10 µM | 0.0001 to 10 µM |  |  |  | OC(c1cc(Cl)cc2cn[nH]c12)C12CC3CC(CC(C3)C1)C2 [Compound P-0010, ((1S,3s)-adamantan-l-yl)(5-chloro-1H-indazol-7-yl)methanol]
0.0001 to 10 µM | 0.0001 to 10 µM | > 10 µM | 0.0001 to 10 µM |  |  |  | OC1(c2cc(Cl)cc3cn[nH]c23)CC2(CCC2)C1 [Compound P-0012, 2-(5-chloro-1H-indazol-7-yl)spiro[3.3]heptan-2-ol]
0.0001 to 10 µM | 0.0001 to 10 µM | 0.0001 to 10 µM | 0.0001 to 10 µM |  |  |  | CC1(C(O)c2cc(C(F)(F)F)cc3cn[nH]c23)CCCCC1 (centres unmarked) [Compound P-0013, (1-methylcyclohexyl)(5-(trifluoromethyl)-1H-indazol-7-yl)methanol]
0.0001 to 10 µM | 0.0001 to 10 µM | 0.0001 to 10 µM | 0.0001 to 10 µM |  |  |  | Cc1cc(C(O)C2(C)CCCCC2)c2[nH]ncc2c1 (centres unmarked) [Compound P-0014, (5-methyl-1H-indazol-7-yl)(1-methylcyclohexyl)methanol]
0.0001 to 10 µM | 0.0001 to 10 µM | 0.0001 to 10 µM |  |  |  |  | Cc1ccc2cn[nH]c2c1C(O)C1(C)CCCCC1 (centres unmarked) [Compound P-0015, (6-methyl-1H-indazol-7-yl)(1-methylcyclohexyl)methanol]
0.0001 to 10 µM | 0.0001 to 10 µM | 0.0001 to 10 µM | 0.0001 to 10 µM |  |  |  | OC(c1cc(Cl)cc2cn[nH]c12)C1CC(F)(F)C1 (centres unmarked) [Compound P-0017, (5-chloro-1H-indazol-7-yl)(3,3-difluorocyclobutyl)methanol]
0.0001 to 10 µM | 0.0001 to 10 µM | 0.0001 to 10 µM | 0.0001 to 10 µM |  |  |  | CC1(C(O)c2cc(Cl)cc3cn[nH]c23)CC(F)(F)C1 (centres unmarked) [Compound P-0018, (5-chloro-1H-indazol-7-yl)(3,3-difluoro-1-methylcyclobutyl)methanol]

IC50 [1, 5] | IC50 [2, 6] | IC50 [3] | IC50 [4, 7] | IC50 [1, 8] | IC50 [2, 9] | IC50 [4, 10] | SMILES
 |  | > 10 µM |  |  |  |  | CC(C)(C)OC(=O)N1CCC2(CC1)CC(O)(c1cc(Cl)cc3cn[nH]c13)C2 [Compound P-0019, tert-butyl 2-(5-chloro-1H-indazol-7-yl)-2-hydroxy-7-azaspiro[3.5]nonane-7-carboxylate]
 | > 200 µM | > 10 µM | > 10 µM |  |  |  | OC1(c2cc(Cl)cc3cn[nH]c23)CC2(CCNCC2)C1 [Compound P-0020, 2-(5-chloro-1H-indazol-7-yl)-7-azaspiro[3.5]nonan-2-ol]
0.0001 to 10 µM | 0.0001 to 10 µM | 0.0001 to 10 µM | 0.0001 to 10 µM |  |  |  | CC1(C(O)c2cc(Cl)cc3cn[nH]c23)CCCC1 (centres unmarked) [Compound P-0021, (5-chloro-1H-indazol-7-yl)(1-methylcyclopentyl)methanol]
0.0001 to 10 µM | 0.0001 to 10 µM | 0.0001 to 10 µM | 0.0001 to 10 µM |  |  |  | OC(c1cc(Cl)cc2cn[nH]c12)C1CCC(F)(F)CC1 (centres unmarked) [Compound P-0022, (5-chloro-1H-indazol-7-yl)(4,4-difluorocyclohexyl)methanol]
 |  | > 10 µM |  |  |  |  | CS(=O)(=O)N1CCC(O)(c2cc(Cl)cc3cn[nH]c23)CC1 [Compound P-0023, 4-(5-chloro-1H-indazol-7-yl)-1-(methylsulfonyl)piperidin-4-ol]
 |  | > 10 µM |  |  |  |  | CS(=O)(=O)N1CC(O)(c2cc(Cl)cc3cn[nH]c23)C1 [Compound P-0024, 3-(5-chloro-1H-indazol-7-yl)-1-(methylsulfonyl)azetidin-3-ol]
0.0001 to 10 µM | 0.0001 to 10 µM | 0.0001 to 10 µM | 0.0001 to 10 µM |  |  |  | CC1(C(O)c2c(Cl)c(Cl)cc3cn[nH]c23)CCCCC1 (centres unmarked) [Compound P-0025, (5,6-dichloro-1H-indazol-7-yl)(1-methylcyclohexyl)methanol]
0.0001 to 10 µM | 0.0001 to 10 µM | 0.0001 to 10 µM | 0.0001 to 10 µM |  |  |  | CC(C)(Cc1ccccc1)C(O)c1cc(Cl)cc2cn[nH]c12 (centres unmarked) [Compound P-0026, 1-(5-chloro-1H-indazol-7-yl)-2,2-dimethyl-3-phenylpropan-1-ol]
0.0001 to 10 µM | 0.0001 to 10 µM | 0.0001 to 10 µM | 0.0001 to 10 µM |  |  |  | CC(C)(c1ccccc1)C(O)c1cc(Cl)cc2cn[nH]c12 (centres unmarked) [Compound P-0027, 1-(5-chloro-1H-indazol-7-yl)-2-methyl-2-phenylpropan-1-ol]
10 to 100 µM |  | > 10 µM |  |  |  |  | O=S1(=O)CC2(CC(O)(c3cc(Cl)cc4cn[nH]c34)C2)C1 [Compound P-0056, 6-(5-chloro-1H-indazol-7-yl)-6-hydroxy-2-thiaspiro[3.3]heptane 2,2-dioxide]
0.0001 to 10 µM | 0.0001 to 10 µM | > 10 µM |  |  |  |  | OC(c1ccccc1)c1cccc2cncn12 (centres unmarked) [Compound P-0057, imidazo[1,5-a]pyridin-5-yl(phenyl)methanol]
 |  |  |  | 3.25 µM | 6.06 µM | 0.05 µM | OC(c1cc(Cl)cc2[nH]ncc12)C1CCCCC1 (centres unmarked) [drawing 811]
 |  |  |  | 6.6 µM | 0.16 µM | 0.17 µM | COC12CCC(C(O)c3cc(Cl)cc4[nH]ncc34)(CC1)CC2 (centres unmarked) [drawing 813]
 |  |  |  | 0.7 µM | 0.1 µM | 0.01 µM | CC(C)(C1CCN(S(C)(=O)=O)CC1)C(O)c1cc(Cl)cc2[nH]ncc12 (centres unmarked) [drawing 815]
 |  |  |  | 0.14 µM | 0.04 µM | 2.94 µM | OC1(c2cc(Cl)cc3cn[nH]c23)CC2(CCC2)C1 [drawing 818]
 |  |  |  | 22 µM | 0.04 µM | 0.03 µM | OC1(c2cc(Cl)cc3[nH]ncc23)CC2(CCC2)C1 [drawing 819]
 |  |  |  | ≥ 200 µM | 0.18 µM | 0.57 µM | OC1(c2cc(Cl)cc3[nH]ncc23)CC2(CCOCC2)C1 [drawing 821]
